Assays:
Test in all cases: Greenhouse spray, phytotoxicity and mortality over time;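 for Phyto (Phytotoxicity, 0–10 rating scale): 0 means no damage and 10 means plant death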;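 for Phyto (phytotoxicity ratings, 0–10 rating scale): 0 means no damage and 10 means plant death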
Format in all cases: in vivo
[1] = tested on: Oats;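 note: 0 means no damage and 10 means plant death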
Description: (§1) Herbicidal treatments were applied using a spray chamber fitted with a TeeJet 8006E flat fan nozzle (available from Spraying Systems Co., Wheaton, Ill.), calibrated to spray at a volume of 60 gpa at 40 psi. Treatment solutions were freshly prepared for each experiment. […] M. et al, J. Wiley and Sons, 1975, pp. 119–120, 218.
(§2) In a greenhouse facility four plant species were grown in 5.5 cm square pots using a potting soil mix comprising peat, vermiculite, sand and 4-10-10 fertilizer. Water soluble 20-20-20 fertilizer was used as a supplement for the plants as required. The plant species used were corn, oats, radish and morningglory. The plants were selected for use based on uniformity and quality. The corn plants used were in the 3 to 4 leaf stage and two plants were present in each pot. The oats used were in the 2 to 4 leaf stage and four plants were present per pot. The radish plants used were in the 3 to 5 leaf stage and one plant was used per pot. The morningglory were in the 2 to 4 leaf stage with one plant per pot. After spraying with a herbicidal formulation, the pots were arranged in a randomized complete block design in sub-irrigated watering trays, and included a water-treated control treatment. Four replicates (pots) were used for each treatment.
(§3) Herbicidal treatments were applied and recorded as in Example 1.

[2] = tested on: Corn; details: for Mortality: plants died of 8;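 for Phyto (Phytotoxicity, 0–10 rating scale): 0 means no damage and 10 means plant death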
Description: as §1, §2, §3

[3] = tested on: Morningglory; details: for Mortality: plants died of 4;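 for Phyto (Phytotoxicity, 0–10 rating scale): 0 means no damage and 10 means plant death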
Description: as §1, §2, §3

[4] = tested on: Radish Plants; details: for Mortality: plants died of 4
Description: as §1, §2, §3

[5] = 9 Days after Treatment, listed as 0.1% C9 Na^+ Salt
[6] = 9 Days after Treatment, listed as 0.5% C9 Na^+ Salt
[7] = 9 Days after Treatment, listed as 1.0% C9 Na^+ Salt
[8] = 11 Days after Treatment, listed as 0.1% C9 Na^+ Salt
[9] = 11 Days after Treatment, listed as 0.5% C9 Na^+ Salt
[10] = 11 Days after Treatment, listed as 1.0% C9 Na^+ Salt
[11] = 16 Days after Treatment, listed as 0.1% C9 Na^+ Salt
[12] = 16 Days after Treatment, listed as 0.5% C9 Na^+ Salt
[13] = 16 Days after Treatment, listed as 1.0% C9 Na^+ Salt
[14] = 18 Days after Treatment, listed as 0.1% C9 Na^+ Salt
[15] = 18 Days after Treatment, listed as 0.5% C9 Na^+ Salt
[16] = 18 Days after Treatment, listed as 1.0% C9 Na^+ Salt
[17] = 21 Days after Treatment, listed as 0.1% C9 Na^+ Salt
[18] = 21 Days after Treatment, listed as 0.5% C9 Na^+ Salt
[19] = 21 Days after Treatment, listed as 1.0% C9 Na^+ Salt
[20] = 23 Days after Treatment, listed as 0.1% C9 Na^+ Salt
[21] = 23 Days after Treatment, listed as 0.5% C9 Na^+ Salt
[22] = 23 Days after Treatment, listed as 1.0% C9 Na^+ Salt

CCCCCCCCC(=O)[O-].[Na+] [Sodium pelargonate]
Phyto (phytotoxicity ratings, 0–10 rating scale) ([1]; 2 Days after Treatment): 0 | Phyto (phytotoxicity ratings, 0–10 rating scale) ([1]; 4 Days after Treatment): 0 | Phyto (phytotoxicity ratings, 0–10 rating scale) ([1]; 7 Days after Treatment): 0 | Phyto (phytotoxicity ratings, 0–10 rating scale) ([1]; 9 Days after Treatment): 0 | Phyto (phytotoxicity ratings, 0–10 rating scale) ([1]; 11 Days after Treatment): 0 | Phyto (phytotoxicity ratings, 0–10 rating scale) ([1]; 16 Days after Treatment): 0 | Phyto (phytotoxicity ratings, 0–10 rating scale) ([1]; 18 Days after Treatment): 0 | Phyto (phytotoxicity ratings, 0–10 rating scale) ([1]; 21 Days after Treatment): 0 | Phyto (phytotoxicity ratings, 0–10 rating scale) ([1]; 23 Days after Treatment): 0 | Phyto (phytotoxicity ratings, 0–10 rating scale) ([1]; 25 Days after Treatment): 0 | Phyto (phytotoxicity ratings, 0–10 rating scale) ([1]; 28 Days after Treatment): 0 | Phyto (phytotoxicity ratings, 0–10 rating scale) ([1]; 30 Days after Treatment): 0 | Phyto (phytotoxicity ratings, 0–10 rating scale) ([1]; 32 Days after Treatment): 0 | Phyto (phytotoxicity ratings, 0–10 rating scale) ([1]; 35 Days after Treatment): 0 | Phyto (Phytotoxicity, 0–10 rating scale) ([2]; 2 Days after Treatment): 0 | Mortality ([2]; 2 Days after Treatment): 0 | Phyto (Phytotoxicity, 0–10 rating scale) ([2]; 4 Days after Treatment): 0 | Mortality ([2]; 4 Days after Treatment): 0 | Phyto (Phytotoxicity, 0–10 rating scale) ([2]; 7 Days after Treatment): 0 | Mortality ([2]; 7 Days after Treatment): 0 | Phyto (Phytotoxicity, 0–10 rating scale) [2, 5]: 0 | Phyto (Phytotoxicity, 0–10 rating scale) [2, 6]: 0.5 | Phyto (Phytotoxicity, 0–10 rating scale) [2, 7]: 0 | Mortality ([2]; 9 Days after Treatment): 0 | Phyto (Phytotoxicity, 0–10 rating scale) [2, 8]: 0 | Phyto (Phytotoxicity, 0–10 rating scale) [2, 9]: 0.5 | Phyto (Phytotoxicity, 0–10 rating scale) [2, 10]: 0 | Mortality ([2]; 11 Days after Treatment): 0 | Phyto (Phytotoxicity, 0–10 rating scale) [2, 11]: 0.25 | Phyto (Phytotoxicity, 0–10 rating scale) [2, 12]: 1.0 | Phyto (Phytotoxicity, 0–10 rating scale) [2, 13]: 0.25 | Mortality ([2]; 16 Days after Treatment): 0 | Phyto (Phytotoxicity, 0–10 rating scale) [2, 14]: 1.0 | Phyto (Phytotoxicity, 0–10 rating scale) [2, 15]: 1.0 | Phyto (Phytotoxicity, 0–10 rating scale) [2, 16]: 0.25 | Mortality ([2]; 18 Days after Treatment): 0 | Phyto (Phytotoxicity, 0–10 rating scale) [2, 17]: 1.0 | Phyto (Phytotoxicity, 0–10 rating scale) [2, 18]: 1.0 | Phyto (Phytotoxicity, 0–10 rating scale) [2, 19]: 0.5 | Mortality ([2]; 21 Days after Treatment): 0 | Phyto (Phytotoxicity, 0–10 rating scale) [2, 20]: 1.0 | Phyto (Phytotoxicity, 0–10 rating scale) [2, 21]: 1.0 | Phyto (Phytotoxicity, 0–10 rating scale) [2, 22]: 0.75 | Mortality ([2]; 23 Days after Treatment): 0 | Phyto (Phytotoxicity, 0–10 rating scale) ([2]; 25 Days after Treatment): 1.0 | Mortality ([2]; 25 Days after Treatment): 0 | Phyto (Phytotoxicity, 0–10 rating scale) ([2]; 28 Days after Treatment): 0 | Mortality ([2]; 28 Days after Treatment): 0 | Phyto (Phytotoxicity, 0–10 rating scale) ([2]; 30 Days after Treatment): 0 | Mortality ([2]; 30 Days after Treatment): 0 | Phyto (Phytotoxicity, 0–10 rating scale) ([2]; 32 Days after Treatment): 0 | Mortality ([2]; 32 Days after Treatment): 0 | Phyto (Phytotoxicity, 0–10 rating scale) ([2]; 35 Days after Treatment): 0 | Mortality ([2]; 35 Days after Treatment): 0 | Phyto (Phytotoxicity, 0–10 rating scale) ([2]; 42 Days after Treatment): 0 | Mortality ([2]; 42 Days after Treatment): 0 | Phyto (Phytotoxicity, 0–10 rating scale) ([2]; 46 Days after Treatment): 0 | Mortality ([2]; 46 Days after Treatment): 0 | Phyto (Phytotoxicity, 0–10 rating scale) ([2]; 57 Days after Treatment): 0 | Mortality ([2]; 57 Days after Treatment): 0 | Phyto (Phytotoxicity, 0–10 rating scale) ([3]; 2 Days after Treatment): 0 | Mortality ([3]; 2 Days after Treatment): 0 | Phyto (Phytotoxicity, 0–10 rating scale) ([3]; 4 Days after Treatment): 0 | Mortality ([3]; 4 Days after Treatment): 0 | Phyto (Phytotoxicity, 0–10 rating scale) ([3]; 7 Days after Treatment): 0 | Mortality ([3]; 7 Days after Treatment): 0 | Phyto (Phytotoxicity, 0–10 rating scale) ([3]; 9 Days after Treatment): 0 | Mortality ([3]; 9 Days after Treatment): 0 | Phyto (Phytotoxicity, 0–10 rating scale) ([3]; 11 Days after Treatment): 0 | Mortality ([3]; 11 Days after Treatment): 0 | Phyto (Phytotoxicity, 0–10 rating scale) ([3]; 16 Days after Treatment): 0 | Mortality ([3]; 16 Days after Treatment): 0 | Phyto (Phytotoxicity, 0–10 rating scale) ([3]; 18 Days after Treatment): 0 | Mortality ([3]; 18 Days after Treatment): 0 | Phyto (Phytotoxicity, 0–10 rating scale) ([3]; 21 Days after Treatment): 0 | Mortality ([3]; 21 Days after Treatment): 0 | Phyto (Phytotoxicity, 0–10 rating scale) ([3]; 23 Days after Treatment): 0 | Mortality ([3]; 23 Days after Treatment): 0 | Phyto (Phytotoxicity, 0–10 rating scale) ([3]; 25 Days after Treatment): 0 | Mortality ([3]; 25 Days after Treatment): 0 | Phyto (Phytotoxicity, 0–10 rating scale) ([3]; 28 Days after Treatment): 0 | Mortality ([3]; 28 Days after Treatment): 0 | Phyto (Phytotoxicity, 0–10 rating scale) ([3]; 30 Days after Treatment): 0 | Mortality ([3]; 30 Days after Treatment): 0 | Phyto (Phytotoxicity, 0–10 rating scale) ([3]; 32 Days after Treatment): 0 | Mortality ([3]; 32 Days after Treatment): 0 | Phyto (Phytotoxicity, 0–10 rating scale) ([3]; 35 Days after Treatment): 0 | Mortality ([3]; 35 Days after Treatment): 0 | Phyto = Phytotoxicity (0–10 rating scale) ([4]; 2 Days after Treatment): 0 | Mortality ([4]; 2 Days after Treatment): 0 | Phyto = Phytotoxicity (0–10 rating scale) ([4]; 4 Days after Treatment): 0 | Mortality ([4]; 4 Days after Treatment): 0 | Phyto = Phytotoxicity (0–10 rating scale) ([4]; 7 Days after Treatment, listed as 0.1% C9 Na^+ Salt): 0 | Phyto = Phytotoxicity (0–10 rating scale) ([4]; 7 Days after Treatment, listed as 0.5% C9 Na^+ Salt): 0 | Phyto = Phytotoxicity (0–10 rating scale) ([4]; 7 Days after Treatment, listed as 1.0% C9 Na^+ Salt): 0.5 | Mortality ([4]; 7 Days after Treatment): 0 | Phyto = Phytotoxicity (0–10 rating scale) [4, 5]: 0 | Phyto = Phytotoxicity (0–10 rating scale) [4, 6]: 0 | Phyto = Phytotoxicity (0–10 rating scale) [4, 7]: 0.5 | Mortality ([4]; 9 Days after Treatment): 0 | Phyto = Phytotoxicity (0–10 rating scale) [4, 8]: 0 | Phyto = Phytotoxicity (0–10 rating scale) [4, 9]: 0 | Phyto = Phytotoxicity (0–10 rating scale) [4, 10]: 0.5 | Mortality ([4]; 11 Days after Treatment): 0 | Phyto = Phytotoxicity (0–10 rating scale) [4, 11]: 0 | Phyto = Phytotoxicity (0–10 rating scale) [4, 12]: 0 | Phyto = Phytotoxicity (0–10 rating scale) [4, 13]: 0.5 | Mortality ([4]; 16 Days after Treatment): 0 | Phyto = Phytotoxicity (0–10 rating scale) [4, 14]: 0 | Phyto = Phytotoxicity (0–10 rating scale) [4, 15]: 0 | Phyto = Phytotoxicity (0–10 rating scale) [4, 16]: 0.5 | Mortality ([4]; 18 Days after Treatment): 0 | Phyto = Phytotoxicity (0–10 rating scale) [4, 17]: 0 | Phyto = Phytotoxicity (0–10 rating scale) [4, 18]: 0 | Phyto = Phytotoxicity (0–10 rating scale) [4, 19]: 0.5 | Mortality ([4]; 21 Days after Treatment): 0 | Phyto = Phytotoxicity (0–10 rating scale) [4, 20]: 0 | Phyto = Phytotoxicity (0–10 rating scale) [4, 21]: 0 | Phyto = Phytotoxicity (0–10 rating scale) [4, 22]: 0.5 | Mortality ([4]; 23 Days after Treatment): 0 | Phyto = Phytotoxicity (0–10 rating scale) ([4]; 25 Days after Treatment, listed as 0.1% C9 Na^+ Salt): 0 | Phyto = Phytotoxicity (0–10 rating scale) ([4]; 25 Days after Treatment, listed as 0.5% C9 Na^+ Salt): 0 | Phyto = Phytotoxicity (0–10 rating scale) ([4]; 25 Days after Treatment, listed as 1.0% C9 Na^+ Salt): 0.5 | Mortality ([4]; 25 Days after Treatment): 0 | Phyto = Phytotoxicity (0–10 rating scale) ([4]; 28 Days after Treatment, listed as 0.1% C9 Na^+ Salt): 0 | Phyto = Phytotoxicity (0–10 rating scale) ([4]; 28 Days after Treatment, listed as 0.5% C9 Na^+ Salt): 0 | Phyto = Phytotoxicity (0–10 rating scale) ([4]; 28 Days after Treatment, listed as 1.0% C9 Na^+ Salt): 0.5 | Mortality ([4]; 28 Days after Treatment): 0 | Phyto = Phytotoxicity (0–10 rating scale) ([4]; 30 Days after Treatment, listed as 0.1% C9 Na^+ Salt): 0 | Phyto = Phytotoxicity (0–10 rating scale) ([4]; 30 Days after Treatment, listed as 0.5% C9 Na^+ Salt): 0 | Phyto = Phytotoxicity (0–10 rating scale) ([4]; 30 Days after Treatment, listed as 1.0% C9 Na^+ Salt): 0.5 | Mortality ([4]; 30 Days after Treatment): 0 | Phyto = Phytotoxicity (0–10 rating scale) ([4]; 32 Days after Treatment, listed as 0.1% C9 Na^+ Salt): 0 | Phyto = Phytotoxicity (0–10 rating scale) ([4]; 32 Days after Treatment, listed as 0.5% C9 Na^+ Salt): 0 | Phyto = Phytotoxicity (0–10 rating scale) ([4]; 32 Days after Treatment, listed as 1.0% C9 Na^+ Salt): 0.5 | Mortality ([4]; 32 Days after Treatment): 0 | Phyto = Phytotoxicity (0–10 rating scale) ([4]; 35 Days after Treatment, listed as 0.1% C9 Na^+ Salt): 0 | Phyto = Phytotoxicity (0–10 rating scale) ([4]; 35 Days after Treatment, listed as 0.5% C9 Na^+ Salt): 0 | Phyto = Phytotoxicity (0–10 rating scale) ([4]; 35 Days after Treatment, listed as 1.0% C9 Na^+ Salt): 0.5 | Mortality ([4]; 35 Days after Treatment): 0 | Phyto = Phytotoxicity (0–10 rating scale) ([4]; 42 Days after Treatment, listed as 0.1% C9 Na^+ Salt): 0 | Phyto = Phytotoxicity (0–10 rating scale) ([4]; 42 Days after Treatment, listed as 0.5% C9 Na^+ Salt): 0 | Phyto = Phytotoxicity (0–10 rating scale) ([4]; 42 Days after Treatment, listed as 1.0% C9 Na^+ Salt): 0.5 | Mortality ([4]; 42 Days after Treatment): 0 | Phyto = Phytotoxicity (0–10 rating scale) ([4]; 46 Days after Treatment, listed as 0.1% C9 Na^+ Salt): 0 | Phyto = Phytotoxicity (0–10 rating scale) ([4]; 46 Days after Treatment, listed as 0.5% C9 Na^+ Salt): 0 | Phyto = Phytotoxicity (0–10 rating scale) ([4]; 46 Days after Treatment, listed as 1.0% C9 Na^+ Salt): 0.5 | Mortality ([4]; 46 Days after Treatment): 0 | Phyto = Phytotoxicity (0–10 rating scale) ([4]; 57 Days after Treatment, listed as 0.1% C9 Na^+ Salt): 0 | Phyto = Phytotoxicity (0–10 rating scale) ([4]; 57 Days after Treatment, listed as 0.5% C9 Na^+ Salt): 0 | Phyto = Phytotoxicity (0–10 rating scale) ([4]; 57 Days after Treatment, listed as 1.0% C9 Na^+ Salt): 0.5 | Mortality ([4]; 57 Days after Treatment): 0

— patent publication US6930075B1, “Fatty acid-based herbicidal composition” (priority 1990, dated 2005)
